In US8563714B2, “Bridged spiro [2.4] heptane derivatives as ALX receptor and/or FPRL2 agonists” (Actelion Pharmaceuticals Ltd., priority 2009, dated 2013):

Legend:
human ALX receptor = biological target: T1, human ALX receptor (Homo sapiens, UniProt P25090); assay: Intracellular calcium measurements (FLIPR), agonistic activity in HEK293-hALXR-Gα16 cells; assay type: cell-based; settings: Fluo-4 calcium FLIPR, normalized to WKYMVm 10 nM
T1 construct: expressed in transfected cells; host or cells: HEK293 (HEK293-hALXR-Gα16)
T1 sequence (P25090 1-351): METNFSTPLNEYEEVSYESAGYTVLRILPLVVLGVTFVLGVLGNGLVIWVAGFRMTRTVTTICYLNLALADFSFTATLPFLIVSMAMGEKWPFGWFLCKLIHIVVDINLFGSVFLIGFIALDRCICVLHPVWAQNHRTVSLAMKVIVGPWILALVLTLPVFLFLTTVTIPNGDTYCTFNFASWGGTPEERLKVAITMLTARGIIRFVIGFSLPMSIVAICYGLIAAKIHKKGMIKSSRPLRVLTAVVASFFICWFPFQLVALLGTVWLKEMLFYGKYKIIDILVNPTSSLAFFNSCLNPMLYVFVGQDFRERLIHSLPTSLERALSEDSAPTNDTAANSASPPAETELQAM
Description: (§1) The ALX receptor and FPRL2 agonistic activities of the compounds of formula (I) are determined in accordance with the following experimental method.
(§2) Intracellular Calcium Measurements:
Cells expressing recombinant human ALX receptor and the G-protein Gα16 (HEK293-hALXR-Gα16) were grown to 80% confluency in Growing Medium (GM). Cells were detached from culture dishes with a cell dissociation buffer (Invitrogen, 13151-014), and collected by centrifugation at 1,000 rpm at rt for 5 min in Assay Buffer (AB) (equal parts of Hank's BSS (Gibco, 14065-049) and DMEM without Phenol Red (Gibco, 11880-028)). After 60 min incubation at 37° C. under 5% CO2 in AB supplemented with 1 μM Fluo-4 (AM) (Invitrogen, F14202), and 20 mM HEPES (Gibco, 15630-056), the cells were washed and resuspended in AB. They were then seeded onto 384-well FLIPR assay plates (Greiner, 781091) at 50′000 cells in 70 μl per well and sedimented by centrifugation at 1,000 rpm for 1 min. Stock solutions of test compounds were made up at a concentration of 10 mM in DMSO, and serially diluted in AB to concentrations required for activation dose response curves. WKYMVm (Phoenix Peptides) was used as a reference agonist. FLIPR384 or FLIPR Tetra instruments (Molecular Devices) were operated according to the manufacturer's standard instructions, adding 4 μl of test compound dissolved at 10 mM in DMSO and diluted prior to the experiment in assay buffer to obtain the desired final concentration. Changes in fluorescence were monitored before and after the addition of test compounds at lex=488 nm and lem=540 nm. Emission peak values above base level after compounds addition were exported after base line subtraction. Values were normalized to high-level control (WKYMVm compound, 10 nM final concentration) after subtraction of the base line value (AB addition).

human FPRL2 = biological target: T2, human FPRL2 (Homo sapiens, UniProt P25089); assay: Intracellular calcium measurements (FLIPR), agonistic activity in HEK293-hFPRL2-Gα16 cells; assay type: cell-based; settings: Fluo-4 calcium FLIPR, normalized to GLY14-Humanin 100 nM
T2 construct: expressed in transfected cells; host or cells: HEK293 (HEK293-hFPRL2-Gα16)
T2 sequence (P25089 1-353): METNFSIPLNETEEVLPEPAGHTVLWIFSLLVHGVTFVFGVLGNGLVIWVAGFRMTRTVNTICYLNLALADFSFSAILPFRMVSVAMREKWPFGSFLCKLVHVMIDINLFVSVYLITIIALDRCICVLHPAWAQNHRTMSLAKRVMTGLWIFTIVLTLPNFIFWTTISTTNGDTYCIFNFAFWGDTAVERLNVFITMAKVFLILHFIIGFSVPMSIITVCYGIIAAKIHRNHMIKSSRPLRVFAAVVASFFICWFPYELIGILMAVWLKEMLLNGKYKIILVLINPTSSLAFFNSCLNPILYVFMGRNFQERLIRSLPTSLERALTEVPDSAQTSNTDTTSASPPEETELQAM
Description: as §1, §2
Cells expressing recombinant human FPRL2 and the G-protein Gα16 (HEK293-hFPRL2-Gα16) were grown to 80% confluency in Growing Medium (GM). […] Stock solutions of test compounds were made up at a concentration of 10 mM in DMSO, and serially diluted in AB to concentrations required for activation dose response curves. Gly14-Humanin (Humanin peptide with replacement of Serine by Glycine at position 14, Phoenix Peptides) was used as a reference agonist. FLIPR384 or FLIPR Tetra instruments (Molecular Devices) were operated according to the manufacturer's standard instructions, adding 4 μl of test compound dissolved at 10 mM in DMSO and diluted prior to the experiment in assay buffer to obtain the desired final concentration. Changes in fluorescence were monitored before and after the addition of test compounds at lex=488 nm and lem=540 nm. Emission peak values above base level after compounds addition were exported after base line subtraction. Values were normalized to high-level control (GLY14-Humanin compound, 100 nM final concentration) after subtraction of the base line value (AB addition).

SMILES | EC50 (human ALX receptor) | EC50 (human FPRL2)
CCN(CC)CCCCNC(=O)[C@H]1[C@H](C(=O)Nc2ccc(Br)cc2)[C@@H]2C=C[C@H]1C21CC1 (racemic) [Example 11, (5R*)—N^5-(4-Bromophenyl)-(6R*)—N^6-(4-(N,N-diethyl-amino)-butyl)-(4S*,7R*)-[4,7-ethenylene-spiro[2.4]heptane]-5,6-dicarboxamide] | 1 nM | 329 nM
O=C(NC1CCCC1)[C@H]1[C@H](C(=O)Nc2ccc(Br)cc2)[C@@H]2C=C[C@H]1C21CC1 (racemic) [Example 15, (5R*)—N^5-(4-Bromophenyl)-(6R*)—N^6-(cyclopentyl)-(4S*,7R*)-[4,7-ethenylene-spiro[2.4]heptane]-5,6-dicarboxamide] | 1.3 nM | 4400 nM
NCCCNC(=O)[C@H]1[C@H](C(=O)Nc2ccc(Br)cc2)[C@@H]2C=C[C@H]1C21CC1 (racemic) [Example 16, (5R*)—N^5-(4-Bromophenyl)-(6R*)—N^6-(3-amino-propyl)-(4S*,7R*)-[4,7-ethenylene-spiro[2.4]heptane]-5,6-dicarboxamide] | 1.4 nM | 3920 nM
CCOCCCNC(=O)[C@H]1[C@H](C(=O)Nc2ccc(Br)cc2)[C@@H]2C=C[C@H]1C21CC1 (racemic) [Example 17, (5R*)—N^5-(4-Bromophenyl)-(6R*)—N^6-(3-ethoxy-propyl)-(4S*,7R*)-[4,7-ethenylene-spiro[2.4]heptane]-5,6-dicarboxamide] | 1.8 nM | 2010 nM
O=C(NCC(F)(F)F)[C@H]1[C@H](C(=O)Nc2ccc(Br)cc2)[C@@H]2C=C[C@H]1C21CC1 (racemic) [Example 19, (5R*)—N^5-(4-Bromophenyl)-(6R*)—N^6-(2,2,2-trifluoro-ethyl)-(4S*,7R*)-[4,7-ethenylene-spiro[2.4]heptane]-5,6-dicarboxamide] | 2.4 nM | 2480 nM
O=C(NCCF)[C@H]1[C@H](C(=O)Nc2ccc(Br)cc2)[C@@H]2C=C[C@H]1C21CC1 (racemic) [Example 20, (5R*)—N^5-(4-Bromophenyl)-(6R*)—N^6-(2-fluoro-ethyl)-(4S*,7R*)-[4,7-ethenylene-spiro[2.4]heptane]-5,6-dicarboxamide] | 2.7 nM | 2860 nM
CNCCNC(=O)[C@H]1[C@H](C(=O)Nc2ccc(Br)cc2)[C@@H]2C=C[C@H]1C21CC1 (racemic) [Example 21, (5R*)—N^5-(4-Bromophenyl)-(6R*)—N^6-(2-(N-methyl-amino)-ethyl)-(4S*,7R*)-[4,7-ethenylene-spiro[2.4]heptane]-5,6-dicarboxamide] | 2.8 nM | 1690 nM
O=C(N[C@H]1CC[C@H](O)CC1)[C@H]1[C@H](C(=O)Nc2ccc(Br)cc2)[C@@H]2C=C[C@H]1C21CC1 (racemic) [Example 23, (5R*)—N^5-(4-Bromophenyl)-(6R*)—N^6-(4-hydroxy-cyclohexyl)-(4S*,7R*)-[4,7-ethenylene-spiro[2.4]heptane]-5,6-dicarboxamide] | 3.3 nM | > 25000 nM
CCSCCNC(=O)[C@H]1[C@H](C(=O)Nc2ccc(Br)cc2)[C@@H]2C=C[C@H]1C21CC1 (racemic) [Example 24, (5R*)—N^5-(4-Bromophenyl)-(6R*)—N^6-(2-ethylsulfanyl-ethyl)-(4S*,7R*)-[4,7-ethenylene-spiro[2.4]heptane]-5,6-dicarboxamide] | 3.7 nM | 4120 nM
O=C(NCCN1CCNC1=O)[C@H]1[C@H](C(=O)Nc2ccc(Br)cc2)[C@@H]2C=C[C@H]1C21CC1 (racemic) [Example 29, (5R*)—N^5-(4-Bromophenyl)-(6R*)—N^6-(2-imidazolidin-2-on-1-yl-ethyl)-(4S*,7R*)-[4,7-ethenylene-spiro[2.4]heptane]-5,6-dicarboxamide] | 4.8 nM | 5580 nM
